PMC5812247, “Engineering thermal stability and solvent tolerance of the soluble quinoprotein PedE from Pseudomonas putida KT2440 with a heterologous whole‐cell screening approach” (Microbial Biotechnology, 2017)

Target: T1, PedE (Pseudomonas putida, UniProt Q88JH5)
T1 construct: C-terminal 6xHis tag, expressed in E. coli BL21(DE3), purified by IMAC, PQQ/Ca2+-dependent periplasmic enzyme
T1 sequence (Q88JH5 34-631): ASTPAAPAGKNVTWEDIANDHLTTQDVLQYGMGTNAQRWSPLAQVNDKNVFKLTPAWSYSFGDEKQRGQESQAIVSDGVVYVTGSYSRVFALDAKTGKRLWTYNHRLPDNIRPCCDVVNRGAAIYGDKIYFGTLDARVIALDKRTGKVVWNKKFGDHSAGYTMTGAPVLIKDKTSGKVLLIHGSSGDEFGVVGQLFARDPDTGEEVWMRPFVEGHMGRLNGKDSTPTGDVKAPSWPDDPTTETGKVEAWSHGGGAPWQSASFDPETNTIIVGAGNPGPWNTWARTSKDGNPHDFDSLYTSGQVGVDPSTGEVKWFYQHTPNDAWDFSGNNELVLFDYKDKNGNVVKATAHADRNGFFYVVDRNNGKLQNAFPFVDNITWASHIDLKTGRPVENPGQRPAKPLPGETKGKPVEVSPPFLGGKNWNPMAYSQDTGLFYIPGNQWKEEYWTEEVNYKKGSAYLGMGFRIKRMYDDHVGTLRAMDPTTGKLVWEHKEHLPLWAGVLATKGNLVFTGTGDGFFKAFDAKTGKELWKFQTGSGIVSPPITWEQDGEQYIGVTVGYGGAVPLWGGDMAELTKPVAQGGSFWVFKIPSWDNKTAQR
Test: residual activity after […] h at […]°C, apo vs PQQ/CaCl2-reconstituted enzyme
Type: biochemical
Details: reconstitution with 10 μM PQQ and 10 mM CaCl2, Tris pH 7.5; ethanol 10 mM as substrate

O=C(O)c1cc(C(=O)O)c2c(n1)C(=O)C(=O)c1cc(C(=O)O)[nH]c1-2 [PQQ]
residual activity after 1 h at 45°C, apo vs PQQ/CaCl2-reconstituted enzyme: purified apo‐form of PedE is much less thermostable compared with the PQQ reconstituted form
